Legend:
Assay in all cases: relative viability (nuclei count vs DMSO), 5 days (fraction); higher = more cells survive
Decitabine + AZD7762 = compound: Nc1ncn([C@H]2C[C@H](O)[C@@H](CO)O2)c(=O)n1 [Decitabine] + NC(=O)Nc1cc(-c2cccc(F)c2)sc1C(=O)N[C@H]1CCCNC1 [AZD7762] (partner 0.2 µM)
Procedure, shortened: (§1)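 Values are medians from duplicate plates. Each reflects relative viability, defined as the nuclei count of treated wells over that of vehicle wells. Lung cancer cell lines in 1536-well plates were pin-tool dosed one day after seeding with one drug alone or with a fixed anchor-drug dose plus five library-drug doses (not always all listed) in √10 steps, then fixed, stained and imaged at 4× after 5 days.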

Decitabine + Olaparib = compound: Nc1ncn([C@H]2C[C@H](O)[C@@H](CO)O2)c(=O)n1 [Decitabine] + O=C(c1cc(Cc2n[nH]c(=O)c3ccccc23)ccc1F)N1CCN(C(=O)C2CC2)CC1 [Olaparib] (partner 8 µM)
Procedure, shortened: as §1

Decitabine + Phenformin = compound: Nc1ncn([C@H]2C[C@H](O)[C@@H](CO)O2)c(=O)n1 [Decitabine] + N=C(N)NC(=N)NCCc1ccccc1 [Phenformin] (partner 250 µM)
Procedure, shortened: as §1

Halofuginone + Olaparib = compound: O=C(C[C@H]1NCCC[C@@H]1O)Cn1cnc2cc(Br)c(Cl)cc2c1=O (racemic) [Halofuginone] + O=C(c1cc(Cc2n[nH]c(=O)c3ccccc23)ccc1F)N1CCN(C(=O)C2CC2)CC1 [Olaparib] (partner 8 µM)
Procedure, shortened: as §1

| Cell Line | relative viability (Decitabine + AZD7762; first compound 0.04 µM) | relative viability (Decitabine + AZD7762; first compound 0.1265 µM) | relative viability (Decitabine + AZD7762; first compound 0.4 µM) | relative viability (Decitabine + AZD7762; first compound 1.265 µM) | relative viability (Decitabine + AZD7762; first compound 4 µM) | relative viability (Decitabine + Olaparib; first compound 0.04 µM) | relative viability (Decitabine + Olaparib; first compound 0.1265 µM) | relative viability (Decitabine + Olaparib; first compound 0.4 µM) | relative viability (Decitabine + Olaparib; first compound 1.265 µM) | relative viability (Decitabine + Olaparib; first compound 4 µM) | relative viability (Decitabine + Phenformin; first compound 0.04 µM) | relative viability (Decitabine + Phenformin; first compound 0.1265 µM) | relative viability (Decitabine + Phenformin; first compound 0.4 µM) | relative viability (Decitabine + Phenformin; first compound 1.265 µM) | relative viability (Decitabine + Phenformin; first compound 4 µM) | relative viability (Halofuginone + Olaparib; first compound 0.001 µM) | relative viability (Halofuginone + Olaparib; first compound 0.003162 µM) | relative viability (Halofuginone + Olaparib; first compound 0.01 µM) | relative viability (Halofuginone + Olaparib; first compound 0.03162 µM) | relative viability (Halofuginone + Olaparib; first compound 0.1 µM) |
| --- | --- | --- | --- | --- | --- | --- | --- | --- | --- | --- | --- | --- | --- | --- | --- | --- | --- | --- | --- | --- |
| NCI-H2342 | 0.507 | 0.593 | 0.517 | 0.457 | 0.319 | 0.539 | 0.368 | 0.433 | 0.351 | 0.249 | 0.597 | 0.732 | 0.511 | 0.514 | 0.535 | 0.644 | 0.431 | 0.413 | 0.431 | 0.427 |
| NCI-H2347 | 0.734 | 0.67 | 0.69 | 0.398 | 0.433 | 0.528 | 0.578 | 0.469 | 0.464 | 0.424 | 0.472 | 0.384 | 0.413 | 0.467 | 0.326 | 0.537 | 0.583 | 0.565 | 0.518 | 0.43 |
| NCI-H2405 | 0.814 | 0.902 | 0.977 | 0.501 | 0.431 | 0.613 | 0.467 | 0.374 | 0.313 | 0.312 | 0.388 | 0.39 | 0.408 | 0.321 | 0.366 | 0.934 | 0.864 | 0.826 | 0.795 | 0.66 |
| NCI-H3122 | 0.927 | 0.823 | 0.529 | 0.466 | 0.5 | 0.34 | 0.307 | 0.225 | 0.201 | 0.206 | 0.371 | 0.364 | 0.342 | – | 0.315 | 0.654 | 0.618 | 0.642 | 0.692 | 0.686 |
| PC-3 [JPC-3] | – | 0.793 | 0.6 | 0.453 | 0.602 | – | 0.762 | 0.368 | 0.465 | 0.455 | 0.372 | 0.452 | 0.393 | 0.386 | 0.379 | 1.19 | 1.12 | 1.15 | 1.15 | 0.948 |
| PC-14 | 0.194 | 0.281 | 0.124 | 0.159 | 0.116 | 0.114 | 0.0887 | 0.0551 | 0.0482 | 0.0711 | 0.114 | 0.339 | 0.128 | 0.126 | 0.163 | 0.383 | 0.333 | 0.406 | 0.218 | 0.0499 |
| RERF-LC-KJ | 0.822 | 0.95 | 0.439 | 0.75 | 0.832 | 0.615 | 0.608 | – | 0.448 | 0.495 | 0.459 | 0.386 | – | 0.402 | 0.333 | 1.19 | 0.983 | 0.884 | 0.959 | 0.632 |
| SW 900 | 0.502 | 0.646 | 0.39 | 0.237 | 0.298 | 0.563 | 0.365 | 0.329 | 0.228 | 0.208 | 0.319 | 0.32 | 0.269 | 0.19 | 0.219 | 0.805 | 0.851 | – | 0.733 | 0.197 |

— the supplement of paper PMC10307832
